# Measured values taken from article PMC8948292, “Combining PEGylated mito-atovaquone with MCT and Krebs cycle redox inhibitors as a potential strategy to abrogate tumor cell proliferation” (Scientific Reports, 2022).
# Read-outs that look alike come from different tables or passages of the source.
# Assays:
# MiaPaCa-2 cells [1] = test: Cell proliferation (cell confluence), IncuCyte Live-Cell Analysis System; format: cell-based, human; details: for IC50: Homo sapiens; for Inhibition of cell proliferation in combination with Mito-PEG5-ATO (combination index): combined with Mito-PEG5-ATO; for % changes of IC50 with vs without Mito-PEG5-ATO: heat map Fig. 7d
# Experimental: The following cell lines were obtained from the American Type Culture Collection (Manassas, VA), where they were regularly authenticated: MiaPaCa-2 (ATCC Cat# CRL-1420, human pancreatic cancer cells), U87MG (ATCC Cat# HTB-14, human brain cancer cells), A549 (ATCC Cat# CCL-185, lung cancer cells), and HCT-116 (ATCC Cat# CCL-247, colon cancer cells). All cell lines were grown at 37 °C in 5% carbon dioxide. MiaPaCa-2 cells were maintained in Dulbecco's Modified Eagle Medium (Thermo Fisher Scientific, Waltham, MA; Cat# 11965) supplemented with 10% fetal bovine serum. U87MG, A549, and HCT-116 cells were maintained in RPMI 1640 medium (Thermo Fisher Scientific, Cat# 11875), supplemented with 10% fetal bovine serum. All cells were stored in liquid nitrogen and used within 20 passages after thawing.
# The IncuCyte Live-Cell Analysis System was used to monitor cell proliferation[3],[33],[67]. As shown in previous publications[3],[67], this imaging system is probe-free and noninvasive, and enables continuous monitoring of cell confluence over several days. The increase in the percentage of cell confluence was used as a surrogate marker of cell proliferation. In a 96-well plate, cells were plated at 1,000 cells per well in triplicates and left to adhere overnight. Cells were then treated with Mito-PEG-ATO analogs, and the cell confluency was recorded over several days in the IncuCyte Live-Cell Analysis System.
# MiaPaCa-2 cells [2] = test: Intracellular oxidants: HPLC of hydroethidine (HE) oxidation products; format: cell-based, human; details: 24 h, with Mito-PEG5-ATO 0.05 µM, AZD-3965 200 µM or CPI-613 200 µM
# Experimental: Hydroethidine (HE) or dihydroethidium was used as a fluorogenic probe to assess the cellular generation of superoxide and other peroxidatic oxidants[36],[37]. Cells were treated for 24 h with Mito-PEG5-ATO alone or in combination with AZD-3965 or CPI-613, followed by 1 h incubation with HE (10 µM). Cells were harvested and the cell pellet stored at − 80 °C until the day of high-performance liquid chromatography (HPLC) analysis. Sample preparation and HPLC analysis were performed as previously reported[32],[36]. 2-OH-E^+ was used as a specific marker for superoxide, and E^+-E^+ was used as a specific marker for intracellular one-electron oxidants[36],[37].
# HE was purchased from Invitrogen (Carlsbad, CA). Stock solutions (20 mM and 5 mM, respectively) were prepared in deoxygenated DMSO (dimethyl sulfoxide) and stored at − 80 °C until use. Ethidium cation (bromide salt) was purchased from Sigma-Aldrich. The hydroxylated oxidation products from HE (2-OH-E^+) were prepared by reacting the probes with Fremy’s salt as previously described in detail[70],[71]. The dimeric products were prepared by reacting the probes with excess potassium ferricyanide, as detailed elsewhere. Synthesized standards of all oxidation products of HE were purified by HPLC. HPLC-based measurements of HE and its oxidation products were performed using an Agilent 1100 system equipped with absorption and fluorescence detectors and refrigerated autosampler (4 °C). The samples (50 µL) were injected into a reverse phase column (Phenomenex, Kinetex C18, 100 mm × 4.6 mm, 2.6 µm) equilibrated with 20% acetonitrile and 80% water containing 0.1% trifluoroacetic acid. The compounds were eluted by increasing the content of acetonitrile from 20 to 56% over 4.5 min at a flow rate of 1.5 mL/min. The absorption detector was used to measure 3,8-diamino-6-phenylphenanthridine (at 290 nm; retention time: 2.5 min), HE-E^+ (at 290 nm; retention time: 4.1 min), E^+-E^+ (at 290 nm; retention time: 4.3 min), and HE (at 370 nm; retention time: 1.6 min). A fluorescence detector (initial excitation at 358 nm and emission at 440 nm) was used to monitor HE (when present at low concentrations). At 2.3 min after injection, the fluorescence parameters were changed (excitation at 490 nm and emission at 567 nm) for sensitive detection of 2-OH-E^+ (retention time: 3.2 min) and E^+ (retention time: 3.3 min).
# MiaPaCa-2 cells [3] = test: Intracellular ATP, luciferase-based assay; format: cell-based, human; details: Mito-PEG5-ATO 0 µM, 24 h
# Experimental: After seeding cells overnight at 2 × 10^4 per well in 96-well plates, cells were treated for 24 h. Intracellular ATP levels were determined in cell lysates using a luciferase-based assay per the manufacturer’s instructions (cat# FLAA, Sigma Aldrich, St. Louis, MO). In brief, the assay starts by rapidly adding an ATP assay mix solution (luciferase and luciferin solution, cat# FLAAM) to cell lysates. This is swirled briskly to mix, and the amount of light produced is immediately measured with a luminometer. The results were normalized to the total protein level measured in each well, as determined by the Bradford method (Bio-Rad Laboratories, Hercules, CA).
# [4] = system: mitochondrial respiration (OCR) in intact MiaPaCa-2 cells; test: Intact cell mitochondrial respiration (basal OCR), Seahorse XF-96; format: cell-based, human
# Experimental: (§1) Mitochondrial oxygen consumption was measured using the Seahorse XF-96 Extracellular Flux Analyzer (Agilent, North Billerica, MA)[3],[33],[67],[68]. To determine the intact cell mitochondrial function of MiaPaCa-2 cells in response to Mito-PEG-ATO analogs, we used the bioenergetic function assay previously described[2],[3]. […] From these measurements, indices of mitochondrial function were determined as previously described[2],[3]. For mitochondrial complex activities assays, after cells were treated with Mito-PEG-ATO analogs for 24 h, the OCR-based assessment of mitochondrial complex activities was carried out on acutely permeabilized cells in the presence of different mitochondrial substrates, i.e., pyruvate/malate for complex I and duroquinol for complex III[3],[32],[34],[69]. Rotenone, malonate, and antimycin A (Sigma-Aldrich, St. Louis, MO) were used as specific inhibitors of mitochondrial complexes I, II, and III, respectively. Briefly, cells that were intact after treatments were immediately permeabilized using the Seahorse XF Plasma Membrane Permeabilizer (Agilent). The mitochondrial complex I-induced OCR was assayed in mannitol and sucrose buffer[69] containing 10 mM pyruvate and 1.5 mM malate (substrates for complex I) and 10 mM malonate (which inhibits complex II activities). The mitochondrial complex III-driven OCR was assayed in a mannitol and sucrose buffer containing 0.5 mM duroquinol (substrate for complex III) as well as 1 µM rotenone and 10 mM malonate (which inhibit both complex I and II activities). The IC50 values were determined as previously reported.
# [5] = target: mitochondrial complex III (MiaPaCa-2 cells) (Homo sapiens, UniProt P00156); test: Complex III-dependent oxygen consumption in permeabilized cells, Seahorse XF-96; format: cell-based
# Sequence of mitochondrial complex III (MiaPaCa-2 cells) (P00156 whole entry): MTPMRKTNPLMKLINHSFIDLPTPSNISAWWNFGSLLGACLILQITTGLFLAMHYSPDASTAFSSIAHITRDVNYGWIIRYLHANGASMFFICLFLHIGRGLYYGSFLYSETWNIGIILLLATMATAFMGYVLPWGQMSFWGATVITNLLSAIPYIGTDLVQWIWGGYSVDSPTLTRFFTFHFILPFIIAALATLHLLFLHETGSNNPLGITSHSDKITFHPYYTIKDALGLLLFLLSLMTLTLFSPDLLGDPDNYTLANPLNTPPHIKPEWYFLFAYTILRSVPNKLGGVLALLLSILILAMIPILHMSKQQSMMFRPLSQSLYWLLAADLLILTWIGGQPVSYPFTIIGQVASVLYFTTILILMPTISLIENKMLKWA
# Sequence of mitochondrial complex III (MiaPaCa-2 cells) (P47985 whole entry partner): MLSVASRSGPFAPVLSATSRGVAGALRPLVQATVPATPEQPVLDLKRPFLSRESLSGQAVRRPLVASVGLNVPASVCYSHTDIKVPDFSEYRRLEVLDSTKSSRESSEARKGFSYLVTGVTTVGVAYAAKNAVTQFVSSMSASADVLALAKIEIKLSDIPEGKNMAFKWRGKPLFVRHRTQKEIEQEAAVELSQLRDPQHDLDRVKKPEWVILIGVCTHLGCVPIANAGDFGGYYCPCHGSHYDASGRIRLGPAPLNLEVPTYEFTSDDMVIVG
# Experimental: as §1
# [6] = MIA PaCa-2, MiaPaCa-2 cells, inhibitor alone, control ~90% confluence, read-out: IC50 (cell proliferation) without Mito-PEG5-ATO
smiles,measurement,setting,value
"O=C(O)CCCCC(CCSCc1ccccc1)SCc1ccccc1 (stereo not shown) [CPI-613, reference compound]",IC50,MiaPaCa-2 cells [1]; [6],197 µM
same,"Inhibition of cell proliferation, alone","MiaPaCa-2 cells [1]; MiaPaCa-2 cells, 200 µM",only moderately inhibited cell proliferation
same,Inhibition of cell proliferation in combination with Mito-PEG5-ATO (combination index),MiaPaCa-2 cells [1]; MiaPaCa-2 cells,synergistically inhibited cell proliferation
same,% changes of IC50 with vs without Mito-PEG5-ATO,MiaPaCa-2 cells [1]; MiaPaCa-2 cells,38.6%
same,"Intracellular oxidant-induced HE-derived products, in combination with Mito-PEG5-ATO",MiaPaCa-2 cells [2],modest and additive increase
CCOC(=O)Oc1c(OC)cc(C(=O)O[C@@H]2C[C@@H]3CN4CCc5c([nH]c6cc(OC)ccc56)[C@H]4C[C@@H]3[C@H](C(=O)OC)[C@H]2OC)cc1OC [syrosingopine],IC50,MiaPaCa-2 cells [1]; [6],8 µM
same,Inhibition of cell proliferation in combination with Mito-PEG5-ATO (combination index),MiaPaCa-2 cells [1]; MiaPaCa-2 cells,Synergistic inhibition
same,% changes of IC50 with vs without Mito-PEG5-ATO,MiaPaCa-2 cells [1]; MiaPaCa-2 cells,53.8%
same,intracellular ATP level,MiaPaCa-2 cells [3]; syrosingopine 1 µM,29.40 nmol ATP/mg protein
same,intracellular ATP level,MiaPaCa-2 cells [3]; syrosingopine 3 µM,30.31 nmol ATP/mg protein
same,intracellular ATP level,MiaPaCa-2 cells [3]; syrosingopine 4 µM,29.92 nmol ATP/mg protein
same,intracellular ATP level,MiaPaCa-2 cells [3]; syrosingopine 5 µM,30.42 nmol ATP/mg protein
same,intracellular ATP level,MiaPaCa-2 cells [3]; syrosingopine 6 µM,30.16 nmol ATP/mg protein
same,intracellular ATP level,MiaPaCa-2 cells [3]; syrosingopine 7 µM,31.07 nmol ATP/mg protein
same,intracellular ATP level,MiaPaCa-2 cells [3]; syrosingopine 8 µM,31.92 nmol ATP/mg protein
same,intracellular ATP level,MiaPaCa-2 cells [3]; syrosingopine 9 µM,32.59 nmol ATP/mg protein
same,intracellular ATP level,MiaPaCa-2 cells [3]; syrosingopine 10 µM,32.30 nmol ATP/mg protein
same,intracellular ATP level,MiaPaCa-2 cells [3]; syrosingopine 15 µM,33.63 nmol ATP/mg protein
same,intracellular ATP level,MiaPaCa-2 cells [3]; syrosingopine 20 µM,30.18 nmol ATP/mg protein
same,"Intracellular oxidant-induced HE-derived products, in combination with Mito-PEG5-ATO",MiaPaCa-2 cells [2],modest and additive increase
"O=C1C(OCCOCCOCCOCCOCCOCCOCCOCCOCC[P+](c2ccccc2)(c2ccccc2)c2ccccc2)=C([C@H]2CC[C@H](c3ccc(Cl)cc3)CC2)C(=O)c2ccccc21.[Br-] [Mito-PEG9-ATO, (26-((3-(trans-4-(4-chlorophenyl)cyclohexyl)-1,4-dioxo-1,4-dihydronaphthalen-2-yl)oxy)-3,6,9,12,15,18,21,24-octaoxahexacosyl)triphenylphosphonium bromide]",IC50,"MiaPaCa-2 cells [1]; MIA PaCa-2, read-out: IC50, inhibition of cell proliferation",0.16 µM
same,Cell confluence (% of control),"MiaPaCa-2 cells [1]; MiaPaCa-2 cells, 0.01 µM, control ~90% confluence",99.63 % of control
same,Cell confluence (% of control),"MiaPaCa-2 cells [1]; MiaPaCa-2 cells, 0.03 µM, control ~90% confluence",99.03 % of control
same,Cell confluence (% of control),"MiaPaCa-2 cells [1]; MiaPaCa-2 cells, 0.1 µM, control ~90% confluence",81.02 % of control
same,Cell confluence (% of control),"MiaPaCa-2 cells [1]; MiaPaCa-2 cells, 0.15 µM, control ~90% confluence",60.68 % of control
same,Cell confluence (% of control),"MiaPaCa-2 cells [1]; MiaPaCa-2 cells, 0.2 µM, control ~90% confluence",25.97 % of control
same,Cell confluence (% of control),"MiaPaCa-2 cells [1]; MiaPaCa-2 cells, 0.25 µM, control ~90% confluence",14.32 % of control
same,Cell confluence (% of control),"MiaPaCa-2 cells [1]; MiaPaCa-2 cells, 0.3 µM, control ~90% confluence",10.81 % of control
same,Cell confluence (% of control),"MiaPaCa-2 cells [1]; MiaPaCa-2 cells, 0.4 µM, control ~90% confluence",7.81 % of control
same,Cell confluence (% of control),"MiaPaCa-2 cells [1]; MiaPaCa-2 cells, 0.5 µM, control ~90% confluence",5.89 % of control
same,Cell confluence (% of control),"MiaPaCa-2 cells [1]; MiaPaCa-2 cells, 1 µM, control ~90% confluence",4.84 % of control
same,Cell confluence (% of control),"MiaPaCa-2 cells [1]; MiaPaCa-2 cells, 5 µM, control ~90% confluence",3.30 % of control
same,OCR (pmol/min/µg protein),"[4]; 0.01 µM, 24 h treatment, intact MiaPaCa-2 cells, baseline OCR, mean, n=4",13.41 pmol/min/µg protein
same,"OCR (basal, intact cell mitochondrial respiration)","[4]; 0.03 µM, 24 h treatment, intact MiaPaCa-2 cells, mean, n=4",12.24 pmol/min/µg protein
same,"OCR (basal, intact cell mitochondrial respiration)","[4]; 0.1 µM, 24 h treatment, intact MiaPaCa-2 cells, mean, n=4",7.60 pmol/min/µg protein
same,"OCR (basal, intact cell mitochondrial respiration)","[4]; 0.2 µM, 24 h treatment, intact MiaPaCa-2 cells, mean, n=4",3.64 pmol/min/µg protein
same,"OCR (basal, intact cell mitochondrial respiration)","[4]; 0.3 µM, 24 h treatment, intact MiaPaCa-2 cells, mean, n=4",1.87 pmol/min/µg protein
same,"OCR (basal, intact cell mitochondrial respiration)","[4]; 0.4 µM, 24 h treatment, intact MiaPaCa-2 cells, mean, n=4",1.43 pmol/min/µg protein
same,"OCR (basal, intact cell mitochondrial respiration)","[4]; 0.5 µM, 24 h treatment, intact MiaPaCa-2 cells, mean, n=4",1.22 pmol/min/µg protein
same,"OCR (basal, intact cell mitochondrial respiration)","[4]; 1 µM, 24 h treatment, intact MiaPaCa-2 cells, mean, n=4",1.18 pmol/min/µg protein
same,"OCR (basal, intact cell mitochondrial respiration)","[4]; 3 µM, 24 h treatment, intact MiaPaCa-2 cells, mean, n=4",0.96 pmol/min/µg protein
same,"OCR (basal, intact cell mitochondrial respiration)","[4]; 5 µM, 24 h treatment, intact MiaPaCa-2 cells, mean, n=4",0.01 pmol/min/µg protein
same,IC50,"[4]; Homo sapiens, MIA PaCa-2, 24 h, read-out: IC50, inhibition of basal OCR in intact cells",0.11 µM
same,"Complex III activity (OCR, % of control)",[5]; 0.003 µM,101.6 % of control
same,"Complex III activity (OCR, % of control)",[5]; 0.01 µM,95.6 % of control
same,"Complex III activity (OCR, % of control)",[5]; 0.03 µM,96.5 % of control
same,"Complex III activity (OCR, % of control)",[5]; 0.05 µM,100.1 % of control
same,"Complex III activity (OCR, % of control)",[5]; 0.1 µM,95.3 % of control
same,"Complex III activity (OCR, % of control)",[5]; 0.2 µM,93.6 % of control
same,"Complex III activity (OCR, % of control)",[5]; 0.3 µM,92.1 % of control
same,"Complex III activity (OCR, % of control)",[5]; 0.4 µM,72.1 % of control
same,"Complex III activity (OCR, % of control)",[5]; 0.5 µM,48.1 % of control
same,"Complex III activity (OCR, % of control)",[5]; 0.75 µM,16.6 % of control
same,"Complex III activity (OCR, % of control)",[5]; 1 µM,4.7 % of control
same,IC50,"[5]; MiaPaCa-2 cells, 24 h treatment, antimycin A-inhibitable OCR, read-out: IC50, complex III-induced oxygen consumption (Complex III activity)",0.5 µM
